Assay results taken from publication PMC10053857, “Analysis of NSAIDs in Rat Plasma Using 3D-Printed Sorbents by LC-MS/MS: An Approach to Pre-Clinical Pharmacokinetic Studies” (Pharmaceutics, 2023).

Experiments:
[1] = Stability of analytes in rat plasma (bench-top, autosampler/post-operative, freeze-thaw); format: in vitro ADME; settings: for Mean Estimated Concentration ± SD, autosampler stability: 15 °C for 24 h; for Mean Estimated Concentration ± SD, bench-top stability: 8 h at ambient temperature; for Mean Estimated Concentration ± SD, three freeze-thaw cycles: each cycle at −20 °C; for mean percentage changes in plasma during bench-top stability, post-operative, and three freeze-thaw cycles: low and high QC
Method: To assess the specificity and selectivity of the validated LC-MS/MS method and to determine the exclusion of endogenous interferences at the retention time of the compound and I.S., a total of six plasma samples and two plasma samples containing 50 ng/mL I.S. solution were subjected to extraction using the 3D sorbent. A calibration curve for rat plasma was constructed for standards over a range of 1–800 ng/mL for acetaminophen and 1–500 ng/mL for indomethacin. The peak area ratio of the drug and I.S. was plotted with a weighing factor of 1/X to assess acetaminophen linearity and linear regression for indomethacin. The minimum detectable concentration of analytes, also known as the lower limit of quantification (LLOQ), was established as the concentration at which the coefficient of variation (CV) is less than 20%, and the accuracy is within the range of 80–120%. Four different concentrations of quality control samples were used for six replicates to determine the intra- and inter-day precision and accuracy. As per the FDA guidelines, CV was limited to <20% for the LLOQ and ≤15% for the LQC, MQC, and HQC. Accuracy was calculated as the percentage difference between the observed and nominal concentrations of the QC samples. A comparison of the peak area ratios of analytes to I.S. of extracted samples (n = 6) and drug solutions of the same concentration was performed to evaluate the extraction recovery of molecules from rat plasma. LQC, MQC, and HQC concentrations were investigated for extraction recovery. The matrix effect of the LQC, MQC, and HQC samples was determined by deproteinizing the blank plasma samples and adding analytes and I.S. to the deproteinized sample. Furthermore, the same analyte concentrations were analyzed in aqueous solutions. The matrix factor was calculated using the following equation: (peak area of post-extracted standard analytes/peak area of the analyte in aqueous solution) × 100. To test the dilution integrity, the range of the standard compound concentrations was increased beyond the calibration range. Plasma samples with 1200 ng/mL of acetaminophen and indomethacin were individually prepared and then diluted two-fold and four-fold using blank plasma. The dilution integrity of concentrations was evaluated with %CV <15%. A series of injections was performed to assess the carry-over effect of acetaminophen and indomethacin. The injections included a blank solvent sample, a higher concentration standard sample, a blank plasma sample extracted with the 3D sorbent, and a higher concentration sample extracted with 3D sorbent from plasma. The thresholds for carry-over effects were 20% of the mean extracted LLOQ signal and 5% of the I.S. response. The stability of acetaminophen and indomethacin in rat plasma was evaluated at six low- and high-quality control sample replicates. Benchtop and post-operative stability studies were conducted at 8 h at ambient temperature and 15 °C for 24 h, respectively. Quality control samples were stored at −20 °C and thawed at room temperature every 24 h for freeze-thaw stability, and after three freeze-thaw cycles, samples were analyzed.

[2] = in vivo; design: species or system male Sprague-Dawley rats; settings: male, Sprague-Dawley, rat, po
Method: A 3D sorbent was used as the extraction device to evaluate the in vivo pharmacokinetics of acetaminophen and indomethacin. The Institutional Animal Ethics Committee of the National Institute of Pharmaceutical Education and Research, Guwahati (NIPER/CAF/IAEC/2022/60) approved all the animal experiments. For the pharmacokinetic study, the animal house was kept at a temperature of 25 ± 1 °C with a relative humidity of 50 ± 15%. The rats were maintained on a 12-h dark/light cycle and had free access to food and water. Prior to the study, the animals fasted for 12 h. To minimize variations in drug concentration in the plasma, 18 male Sprague-Dawley rats of similar weight and age were used. Rats were administered 50 mg/kg acetaminophen and 10 mg/kg indomethacin in saline through oral gavage to a different group. Blood samples were collected and thoroughly vortexed at 0.25, 0.50, 1, 2, 4, 6, and 8 h before being centrifuged at 5000 rpm for 20 min at 4 °C. The resulting plasma samples were separated and subjected to analysis using LC-MS/MS. The 3D extraction prototype was used to extract analytes from the plasma by introducing 90 µL of plasma spiked with 10 µL of an internal standard (I.S., 50 ng/mL), making up to 1 mL with deionized water, and adding the 3D extraction device for the adsorption process. After 15 min of adsorption in the vortexes, the remaining residue was collected for further analysis, the prototype was transferred into a fresh microcentrifuge tube, and desorption solvents (water and acetonitrile) were added in a 1:1 (v/v) ratio and vortexed for 15 min. Samples were collected after successful desorption and analyzed using LC-MS/MS.
Male Sprague-Dawley rats (n = 6) were used for pharmacokinetic studies, and oral doses of indomethacin and acetaminophen were separately administered to overnight-fasted rats. Blood was collected through retro-orbital puncture at different time points, and plasma was separated and stored for further analysis. Plasma containing indomethacin and acetaminophen was added to the microcentrifuge tube containing the activated extraction device for adsorption and vortexed for 15 min with 1 mL of water, after which the analytes present in the plasma were bound to the surface of the cartridge. After adsorption for 15 min, the remaining solvent was transferred into a fresh tube and centrifuged to precipitate the matrix. The resulting supernatant was collected and introduced into an LC-MS/MS system to quantify the unbound concentration. The sorbent was transferred into a fresh microcentrifuge tube for desorption using acetonitrile and water and vortexed for 15 min to complete the process. The solution was collected, followed by centrifugation, and the supernatant was filtered through a 0.2µm filter. The resulting filtrate was then subjected to LC-MS/MS analysis to measure the indomethacin and acetaminophen concentration in the plasma.
An investigation into the pharmacokinetics of indomethacin and acetaminophen in rats was conducted through oral administration, employing LC-ESI-MS/MS analysis. Figure 9 illustrates the resulting pharmacokinetic profile, while Table 4 presents the computed pharmacokinetic parameters of both substances, obtained via PK Analysis Add-ins in the Microsoft Excel Program. […] The mean area under the curve (AUC0–t) for indomethacin is 0.93 µg h/mL and for acetaminophen is 32.33 µg h/mL. […] Based on the obtained results, the developed 3D-printed sorbent efficiently extracted analytes from plasma, reduced sample preparation time, and minimized the use of organic solvents during sample preparation.

[3] = acetaminophen, HQC, theoretical 600 ng/mL
[4] = acetaminophen, LQC, theoretical 3 ng/mL
[5] = indomethacin, HQC, theoretical 400 ng/mL
[6] = indomethacin, LQC, theoretical 3 ng/mL

Which results are given for `CC(=O)Nc1ccc(O)cc1` [Acetaminophen]?
Mean Estimated Concentration ± SD, autosampler stability [1, 3]: 596.26 ± 8.41 ng/mL; Mean Estimated Concentration ± SD, bench-top stability [1, 3]: 592.92 ± 10.80 ng/mL; Mean Estimated Concentration ± SD, three freeze-thaw cycles [1, 3]: 591.92 ± 6.66 ng/mL; Mean Estimated Concentration ± SD, autosampler stability [1, 4]: 2.92 ± 0.15 ng/mL; Mean Estimated Concentration ± SD, bench-top stability [1, 4]: 2.91 ± 0.16 ng/mL; Mean Estimated Concentration ± SD, three freeze-thaw cycles [1, 4]: 3.01 ± 0.09 ng/mL; mean percentage changes in plasma during bench-top stability, post-operative, and three freeze-thaw cycles [1]: within acceptable limits; AUC ([2]; 50 mg/kg): 32400 ± 10800 ng·h/mL; AUC(0-t) ([2]; 50 mg/kg): 32300 ± 10800 ng·h/mL; Cmax ([2]; 50 mg/kg): 27300 ± 9900 ng/mL; Tmax ([2]; 50 mg/kg): 30 to 60 min; half-life ([2]; 50 mg/kg): 48.6 ± 6 min; k el ([2]; 50 mg/kg): 0.000236 s⁻¹

For `COc1ccc2c(c1)c(CC(=O)O)c(C)n2C(=O)c1ccc(Cl)cc1` [Indomethacin], which “Mean Estimated Concentration ± SD, autosampler stability” value [1, 5] is on record?
Its value is 391.82 ± 6.72 ng/mL.

What about the “Mean Estimated Concentration ± SD, bench-top stability” value [1, 5] of the same compound?
Its value is 401.61 ± 7.80 ng/mL.

And the “Mean Estimated Concentration ± SD, three freeze-thaw cycles” value [1, 5]?
Its value is 395.72 ± 13.06 ng/mL.

What about the “Mean Estimated Concentration ± SD, autosampler stability” value [1, 6] of the same compound?
Its value is 2.99 ± 0.04 ng/mL.

And the “Mean Estimated Concentration ± SD, bench-top stability” value [1, 6]?
Its value is 2.98 ± 0.11 ng/mL.

And the “Mean Estimated Concentration ± SD, three freeze-thaw cycles” value [1, 6]?
Its value is 2.96 ± 0.12 ng/mL.

What about the “mean percentage changes in plasma during bench-top stability, post-operative, and three freeze-thaw cycles” value [1] of the same compound?
The value was “within acceptable limits”.

And the AUC ([2]; 10 mg/kg)?
Its AUC is 970 ± 200 ng·h/mL.

And the AUC(0-t) ([2]; 10 mg/kg)?
The AUC(0-t) was 930 ± 170 ng·h/mL.

And the Cmax ([2]; 10 mg/kg)?
The Cmax was 330 ± 40 ng/mL.

What about the Tmax ([2]; 10 mg/kg) of the same compound?
The Tmax was 30 to 60 min.

What about the half-life ([2]; 10 mg/kg) of the same compound?
Its half-life is 107 ± 26.4 min.

And the k el ([2]; 10 mg/kg)?
The k el was 0.000114 s⁻¹.
